# Reference: ChEMBL document CHEMBL3046388, “Antifungal and insecticidal activities of daphnodorins A, B and C” (1987)
# Experiments:
# Type in all cases: functional
# Callosobruchus chinensis = assay: Insecticidal activity against adult Callosobruchus chinensis in compound treated ingenmame leaves assessed as mortality at 500 ppm at 25 to 27 degC measured after 5 days; settings: 120 h
# Pyricularia oryzae [1] = assay: Antifungal activity against Magnaporthe oryzae inoculated in compound treated Oryza sativa leaves assessed as protective value at 27 degC at 10 ppm by spraying method
# Botrytis cinerea = assay: Antifungal activity against Botryotinia fuckeliana inoculated in compound treated Pisum sativum var. arvense POIL. leaves assessed as protective value at 27 degC at 500 ppm by spraying method
# Pyricularia oryzae [2] = assay: Antifungal activity against Magnaporthe oryzae inoculated in compound treated Oryza sativa leaves assessed as protective value at 27 degC at 200 ppm by spraying method
# Pyricularia oryzae [3] = assay: Antifungal activity against Magnaporthe oryzae inoculated in compound treated Oryza sativa leaves assessed as protective value at 27 degC at 500 ppm by spraying method
# Pyricularia oryzae [4] = assay: Antifungal activity against Magnaporthe oryzae inoculated in compound treated Oryza sativa leaves assessed as protective value at 27 degC at 50 ppm by spraying method
# Nilaparvata lugens = assay: Insecticidal activity against third-instar larvae of Nilaparvata lugens (brown planthopper) in compound treated Oriza sativa stem assessed as mortality at 500 ppm at 25 to 27 degC measured after 5 days by stem dip method; settings: 120 h
# Puccinia recondita = assay: Antifungal activity against Puccinia recondita inoculated in compound treated Triticum aestivum leaves assessed as protective value at 27 degC at 500 ppm by spraying method
# Spodoptera litura = assay: Insecticidal activity against third-instar larvae Spodoptera litura in compound treated cabbage leaves assessed as mortality at 500 ppm at 25 to 27 degC measured after 5 days by leaf dip method; settings: foliar, 120 h
# Pyricularia oryzae [5] = assay: Antifungal activity against Magnaporthe oryzae inoculated in compound treated Oryza sativa leaves assessed as residual effect on leaves at 27 degC at 500 ppm by spraying method
# Rhizoctonia solani = assay: Antifungal activity against Rhizoctonia solani inoculated in compound treated Oryza sativa leaves assessed as protective value at 27 degC at 500 ppm by spraying method
# Tetranychus urticae = assay: Insecticidal activity against adult and eggs of Tetranychus urticae (two-spotted spider mite) assessed as mortality at 500 ppm sprayed onto organism at 25 to 27 degC measured after 5 days; settings: 120 h
# Blumeria graminis = assay: Antifungal activity against Blumeria graminis inoculated in compound treated Triticum aestivum leaves assessed as protective value at 27 degC at 500 ppm by spraying method
# Phytophthora infestans = assay: Antifungal activity against Phytophthora infestans inoculated in compound treated Lycopersicon esculentum MILL, leaves assessed as protective value at 27 degC at 500 ppm by spraying method
Structure (SMILES),mortality at 500 ppm (Callosobruchus chinensis) [%],Activity (Pyricularia oryzae [1]) [%],Activity (Botrytis cinerea) [%],Activity (Pyricularia oryzae [2]) [%],Activity (Pyricularia oryzae [3]) [%],Activity (Pyricularia oryzae [4]) [%],mortality at 500 ppm (Nilaparvata lugens) [%],Activity (Puccinia recondita) [%],mortality at 500 ppm (Spodoptera litura) [%],Activity (Pyricularia oryzae [5]) [%],Activity (Rhizoctonia solani) [%],mortality at 500 ppm (Tetranychus urticae) [%],Activity (Blumeria graminis) [%],Activity (Phytophthora infestans) [%]
O=C(c1c(O)cc(O)cc1O)c1c(-c2ccc(O)cc2)oc2cc(O)c3c(c12)O[C@H](c1ccc(O)cc1)CC3 [DAPHNODORIN A],0,58,0,93,95,83,10,0,20,48,0,30,0,0
O=C(c1c(O)cc(O)cc1O)c1c(-c2ccc(O)cc2)oc2cc(O)c3c(c12)O[C@H](c1ccc(O)cc1)[C@@H](O)C3 [DAPHNODORIN B],30,–,0,–,79,–,0,0,30,–,0,45,0,0
O=C1c2c(O)cc(O)cc2O[C@]12c1c(cc(O)c3c1O[C@H](c1ccc(O)cc1)CC3)O[C@H]2c1ccc(O)cc1 [DAPHNODORIN C],10,40,0,89,90,69,0,0,10,40,0,11,0,0
